Test results from patent publication US7166598B2, “Piperazine derivatives” (Astellas Pharma Inc., priority 1998, dated 2007).

| SMILES | melting point |
| --- | --- |
| CC1(C)COCCN1CC#CCN1CCN(C(=O)c2cc(C(F)(F)F)cc(C(F)(F)F)c2)[C@H](Cc2ccc(C(F)(F)F)cc2)C1.Cl.Cl | 110 to 130 °C |
| COC[C@@H]1CN(CCCN2CCN(C(=O)c3cc(C(F)(F)F)cc(C(F)(F)F)c3)[C@H](Cc3ccc(C)c(O)c3)C2)CCO1.Cl.Cl | 150 to 170 °C |
| COC[C@@H]1CN(CCN2CCN(C(=O)c3cc(C(F)(F)F)cc(S(=O)(=O)N4CCCC4)c3)[C@H](Cc3ccc(C)c(O)c3)C2)CCO1.Cl.Cl | 125 to 177 °C |
| COC[C@@H]1CN(CCN2CCN(C(=O)c3cc([N+](=O)[O-])cc(C(F)(F)F)c3)[C@H](Cc3ccc(C)c(O)c3)C2)CCO1.Cl.Cl | 181 to 185 °C |
| COc1cc(C(=O)N2CCN(Cc3cccnc3)C[C@H]2Cc2c[nH]c3ccccc23)cc(C(F)(F)F)c1.Cl.Cl | 190 to 200 °C |
| CO[C@H]1CN(CCN2CCN(C(=O)c3cc(C(F)(F)F)cc(C(F)(F)F)c3)[C@H](Cc3ccc(C(F)(F)F)cc3)C2)C[C@@H]1OC.Cl.Cl | 203 to 208 °C |
| COC[C@@H]1CN(CCN2CCN(C(=O)c3cc(C(F)(F)F)cc(C(F)(F)F)c3)[C@H](Cc3ccc(C(F)(F)F)cc3)C2)[C@@H](C)CO1.Cl.Cl | 142 to 182 °C |
| COC[C@H]1CN(CCN2CCN(C(=O)c3cc(C(F)(F)F)cc(C(F)(F)F)c3)[C@H](Cc3ccc(Cl)c(O)c3)C2)CCO1.Cl.Cl | 204 to 214 °C |
| Cl.Cl.O=C(c1cc(C(F)(F)F)cc(C(F)(F)F)c1)N1CCN(CCCc2cccnc2)C[C@H]1Cc1ccc(F)c(F)c1 | 215 to 220 °C |
| Cl.Cl.O=C(c1cc(C(F)(F)F)cc(C(F)(F)F)c1)N1CCN(CCN2[C@H](CO)CCC[C@@H]2CO)C[C@H]1Cc1ccc(C(F)(F)F)cc1 | 164 to 167 °C |
| COc1cc(C(=O)N2CCN(CCN3CCc4ncccc4C3)C[C@H]2Cc2ccc(Cl)c(O)c2)cc(C(F)(F)F)c1.Cl.Cl.Cl | 225 to 240 °C (dec.) |
| COc1cc(C(=O)N2CCN(CCN3C[C@@H](C)O[C@@H](C)C3)C[C@H]2Cc2ccc(F)cc2)cc(C(F)(F)F)c1.Cl.Cl | 70.3 to 85.2 °C |
| COC[C@@H]1CN(CCN2CCN(C(=O)c3cc(C(F)(F)F)cc(C(F)(F)F)c3)[C@H](Cc3ccc(C(F)(F)F)cc3)C2)CCO1.Cl.Cl | 146 to 159 °C |
| Cc1ccc(C[C@@H]2CN(Cc3ccc4ncccc4c3)CCN2C(=O)c2cc(C(F)(F)F)cc(C(F)(F)F)c2)cc1O.Cl.Cl | 170 to 200 °C |
| COC[C@@H]1CN(CCN2CCN(C(=O)c3cc(OC)cc(C(F)(F)F)c3)[C@H](Cc3ccc(Cl)c(O)c3)C2)CCO1.Cl.Cl | 160 to 168 °C |
| Cl.Cl.O=C(c1cc(C(F)(F)F)cc(C(F)(F)F)c1)N1CCN(CCN2CCC(F)(F)CC2)C[C@H]1Cc1ccc(F)c(O)c1 | 190 to 200 °C |
| C[C@@H]1CN(CCN2CCN(C(=O)c3cc(Cl)cc(C(F)(F)F)c3)[C@H](Cc3ccc(Cl)cc3)C2)C[C@H](C)O1.Cl.Cl | 136.4 to 141 °C |
| COc1cc(C(=O)N2CCN(CCN3CCC(F)(F)CC3)C[C@H]2Cc2ccc(Cl)cc2)cc(C(F)(F)F)c1.Cl.Cl | 220 to 250 °C |

| SMILES | melting point |
| --- | --- |
| CC1(C)COCCN1CC#CCN1CCN(C(=O)c2cc(C(F)(F)F)cc(C(F)(F)F)c2)[C@H](Cc2ccc(Cl)c(O)c2)C1.Cl.Cl | 181 to 186 °C |
| COc1cc(C(=O)N2CCN(Cc3cnn(C)c3)C[C@H]2Cc2ccc(C(F)(F)F)cc2)cc(C(F)(F)F)c1.Cl | 218 to 223 °C |
| COc1cc(C[C@@H]2CN(Cc3cccnc3)CCN2C(=O)c2cc(C(F)(F)F)cc(C(F)(F)F)c2)ccc1F.Cl.Cl | 143 to 147 °C |
| Cl.Cl.O=C(c1cc(C(F)(F)F)cc(C(F)(F)F)c1)N1CCN(Cc2c[nH]c3cccnc23)C[C@H]1Cc1ccc(Cl)c(O)c1 | 208 to 211 °C |
| Cl.Cl.O=C(c1cc(C(F)(F)F)cc(C(F)(F)F)c1)N1CCN(CCCc2cccnc2)C[C@H]1Cc1ccc(Cl)cc1 | 60 to 100 °C |
| Cl.Cl.Cl.O=C(c1cc([N+](=O)[O-])cc(C(F)(F)F)c1)N1CCN(CCN2CCc3ncccc3C2)C[C@H]1Cc1ccc(Cl)cc1 | 221 to 228 °C |
| COC[C@@H]1CN(CCN2CCN(C(=O)c3cc(Cl)cc(C(F)(F)F)c3)[C@H](Cc3ccc(Cl)cc3)C2)CCO1.Cl.Cl | 148 to 153 °C |
| COc1cc(C(=O)N2CCN(CCN3CCc4ncccc4C3)C[C@H]2Cc2ccc(C(F)(F)F)cc2)cc(C(F)(F)F)c1.Cl.Cl.Cl | 185 to 191 °C |
| Cl.Cl.O=C(c1cc(C(F)(F)F)cc(C(F)(F)F)c1)N1CCN(Cc2cccnc2)C[C@H]1Cc1ccc(C(F)(F)F)cc1 | 198 to 223 °C |
| COC[C@H]1CN(CCN2CCN(C(=O)c3cc(C(F)(F)F)cc(C(F)(F)F)c3)[C@H](Cc3ccc(C)c(O)c3)C2)CCO1.Cl.Cl | 225 to 235 °C |
| COC[C@@H]1CN(CCN2CCN(C(=O)c3cc(OC)cc(C(F)(F)F)c3)[C@H](Cc3ccc(C(F)(F)F)cc3)C2)CCO1.Cl.Cl | 126 to 155 °C |
| Cl.Cl.Cl.O=C(c1cc(C(F)(F)F)cc(C(F)(F)F)c1)N1CCN(CCN2CCc3ncccc3C2)C[C@H]1Cc1ccc(F)c(O)c1 | 240 to 241 °C |
| COc1cc(C(=O)N2CCN(CC#CCN3CCOCC3(C)C)C[C@H]2Cc2ccc(Cl)cc2)cc(C(F)(F)F)c1.Cl.Cl | 110 to 140 °C |
| Cc1ccc(C[C@@H]2CN(Cc3nc(N(C)C)no3)CCN2C(=O)c2cc(C(F)(F)F)cc(C(F)(F)F)c2)cc1O.Cl.Cl | 140 to 150 °C |
| COc1cc(C[C@@H]2CN(CCN3C[C@@H](C)O[C@@H](C)C3)CCN2C(=O)c2cc(C(F)(F)F)cc(C(F)(F)F)c2)ccc1F.Cl.Cl | 205 to 208 °C |
| COc1cc(C(=O)N2CCN(CCN3C[C@@H](C)O[C@@H](C)C3)C[C@H]2Cc2ccc(C(F)(F)F)c(OC)c2)cc(C(F)(F)F)c1.Cl.Cl | 125 to 135 °C |
| COC[C@H]1CN(CCN2CCN(C(=O)c3cc(OC)cc(C(F)(F)F)c3)[C@H](Cc3c[nH]c4ccccc34)C2)CCO1.Cl.Cl | 200 to 210 °C |

Second part, the compound after the results:

| melting point | SMILES |
| --- | --- |
| 162 to 178 °C | CSc1cc(C(=O)N2CCN(CCN3C[C@@H](C)O[C@@H](C)C3)C[C@H]2Cc2ccc(Cl)c(O)c2)cc(C(F)(F)F)c1.Cl.Cl |
| 169 to 173 °C | COC[C@@H]1CN(CCN2CCN(C(=O)c3cc(-c4ccncc4)cc(C(F)(F)F)c3)[C@H](Cc3ccc(C)c(O)c3)C2)CCO1.Cl.Cl.Cl |
| 196 to 198 °C | COC[C@@H]1CN(CCN2CCN(C(=O)c3cc(C(F)(F)F)cc(C(F)(F)F)c3)[C@H](Cc3ccc(F)c(F)c3)C2)CCO1.Cl.Cl |
| 139 to 148 °C | COC[C@H]1CN(CCN2CCN(C(=O)c3cc(C(F)(F)F)cc(C(F)(F)F)c3)[C@H](Cc3ccc(F)c(OC)c3)C2)CCO1.Cl.Cl |
| 112 to 120 °C | COc1cc(C[C@@H]2CN(CCN3C[C@H](OC)[C@@H](OC)C3)CCN2C(=O)c2cc(C(F)(F)F)cc(C(F)(F)F)c2)ccc1F.Cl.Cl |
| 209 to 214 °C | CN(C)c1cc(C(=O)N2CCN(CCN3CCc4ncccc4C3)C[C@H]2Cc2ccc(Cl)cc2)cc(C(F)(F)F)c1.Cl.Cl.Cl |
| 206 to 224.5 °C | COC[C@@H]1CN(CCN2CCN(C(=O)c3cc(C(F)(F)F)cc(C(F)(F)F)c3)[C@H](Cc3ccc(C)c(O)c3)C2)CCO1.Cl.Cl [Example 13] |
| 127.3 to 130.9 °C | Cl.Cl.Cl.O=C(c1cc(F)cc(C(F)(F)F)c1)N1CCN(CCN2CCc3ncccc3C2)C[C@H]1Cc1ccc(Cl)cc1 |
| 150 to 180 °C | COC[C@@H]1CN(CCN2CCN(C(=O)c3cc(C(F)(F)F)cc(C(F)(F)F)c3)C(Cc3ccc(C)c(O)c3)C2)C(C)(C)CO1.Cl.Cl (stereo partly shown) |
| 240 to 250 °C | Cc1ccc(C[C@@H]2CN(CCN3[C@@H](C)COC[C@@H]3C)CCN2C(=O)c2cc(C(F)(F)F)cc(C(F)(F)F)c2)cc1O.Cl.Cl |
| 209 to 226 °C | CN(C)S(=O)(=O)c1cc(C(=O)N2CCN(CCN3CCc4ncccc4C3)C[C@H]2Cc2ccc(Cl)cc2)cc(C(F)(F)F)c1.Cl.Cl.Cl |
| 148.2 to 153.3 °C | C[C@@H]1CN(CCN2CCN(C(=O)c3cc(N(C)C)cc(C(F)(F)F)c3)[C@H](Cc3ccc(Cl)cc3)C2)C[C@H](C)O1.Cl.Cl |
| 187 to 192 °C | Cl.Cl.O=C(c1cc(C(F)(F)F)cc(C(F)(F)F)c1)N1CCN(Cc2cccnc2)C[C@H]1Cc1ccc(Cl)c(O)c1 |
| 160 to 170 °C | Cc1ccc(C[C@@H]2CN(Cc3nc(N)no3)CCN2C(=O)c2cc(C(F)(F)F)cc(C(F)(F)F)c2)cc1O.Cl.Cl |
| 134 to 140 °C | COC[C@@H]1CN(CCN2CCN(C(=O)c3cc(OC)cc(C(F)(F)F)c3)[C@H](Cc3ccc4ccccc4c3)C2)CCO1.Cl.Cl |
| 240 to 243 °C | COc1cc(C[C@@H]2CN(CCN3CCC(F)(F)CC3)CCN2C(=O)c2cc(C(F)(F)F)cc(C(F)(F)F)c2)ccc1F.Cl.Cl |
| 85 to 130 °C | Cc1ccc(C[C@@H]2CN(C/C=C\c3cccnc3)CCN2C(=O)c2cc(C(F)(F)F)cc(C(F)(F)F)c2)cc1O.Cl.Cl |
| 125 to 130 °C | COc1cc(C[C@@H]2CN(CC#CCN3CCOCC3(C)C)CCN2C(=O)c2cc(C(F)(F)F)cc(C(F)(F)F)c2)ccc1F.Cl.Cl |
| 70 to 80 °C | COc1cc(C(=O)N2CCN(CCCc3cccnc3)C[C@H]2Cc2ccc(C(F)(F)F)cc2)cc(C(F)(F)F)c1.Cl.Cl |
| 150 to 156 °C | COC[C@@H]1C[C@H](COC)CN(CCN2CCN(C(=O)c3cc(C(F)(F)F)cc(C(F)(F)F)c3)[C@H](Cc3ccc(F)c(OC)c3)C2)C1.Cl.Cl |
| 159 to 161 °C | COc1cc(C[C@@H]2CN(CCN3[C@H](CO)CCC[C@@H]3CO)CCN2C(=O)c2cc(C(F)(F)F)cc(C(F)(F)F)c2)ccc1F.Cl.Cl |
| 148 to 160 °C | COC[C@@H]1CN(CCN2CCN(C(=O)c3cc(C(F)(F)F)cc(C(F)(F)F)c3)[C@H](Cc3ccc(C)c(F)c3)C2)CCO1.Cl.Cl |
| > 250 °C | Cl.Cn1cc(CN2CCN(C(=O)c3cc(C(F)(F)F)cc(C(F)(F)F)c3)[C@H](Cc3ccc4ccccc4c3)C2)cn1 |
| 156 to 163 °C | CNc1cc(C[C@@H]2CN(CCN3CCO[C@H](COC)C3)CCN2C(=O)c2cc(C(F)(F)F)cc(C(F)(F)F)c2)ccc1C.Cl.Cl.Cl |
| 258.4 to 261.4 °C | COc1cc(C(=O)N2CCN(CCN3CCC(F)(F)CC3)C[C@H]2Cc2ccc(F)cc2)cc(C(F)(F)F)c1.Cl.Cl |
| 81.4 to 84.3 °C | COc1cc(C(=O)N2CCN(Cc3cccnc3)C[C@H]2Cc2ccc(F)cc2)cc(C(F)(F)F)c1.Cl.Cl |
